From patent US8669244B2, “Cucurbitane-triterpenoid compounds, pharmaceutical composition, use and preparation method thereof” (National Taiwan University, priority 2011, dated 2014)
Each block holds one compound with its values, some of them ahead of it.

Experiments:
[1] = molecular target: T1, GAL4-hERα ligand binding domain (LBD) chimeric receptor (Homo sapiens, UniProt P03372); assay: Transactivation assay for estrogen receptor, ALP reporter, compound alone (ERα); type: cell-based; conditions: for Activation of ERα: under tested condition (maximum tolerable 2 μM); for Maximum activation for ERα: concentration not given
T1 construct: expressed in transfected cells; host or cells: CHO-K1 (Chinese hamster cells), transient co-transfection with (UAS)4-ALP reporter plasmid
T1 sequence (P03372 311-547 limits assumed): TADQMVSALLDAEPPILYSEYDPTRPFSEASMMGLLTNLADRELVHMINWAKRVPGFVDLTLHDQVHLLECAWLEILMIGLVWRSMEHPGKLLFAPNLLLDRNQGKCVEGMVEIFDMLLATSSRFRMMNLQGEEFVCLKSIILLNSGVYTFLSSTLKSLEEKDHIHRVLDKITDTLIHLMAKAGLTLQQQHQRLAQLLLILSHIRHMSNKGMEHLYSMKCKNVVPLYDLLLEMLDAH
Excerpt: (§1) 1. Estrogen Activity Analysis: Transactivation Assay for Estrogen Receptor
(§2) Plasmid pBKCMV containing GAL4-hERα (or ERβ) ligand binding domain (LBD) chimeric receptors and plasmid containing (UAS)4-alkaline phosphatase (ALP) […] were co-transfected into Chinese hamster cells (CHO-K1). Compounds with estrogenic activity would interact with estrogen-specific ER to induce the binding of GAL4 and upstream activation sequence (UAS)4 specifically to initiate the expression of ALP gene. Therefore, the ALP activity can be used to determine whether the samples to be assayed have the estrogenic activity.
Cells in high confluence were plated onto 96-well culture plate the day before transfection. The plate was then washed to remove the serum during the day of transfection, followed by addition of two plasmid DNA, GAL4-hER[…] and (UAS)4-ALP in the ratio of 1:1 together with Lipofectamine 2000 (GIBCOBRL) transfection agent and culture medium to form DNA-liposome complex for 5 hours. The sample to be assayed was added into the medium of transfected cells and cultivated for two days.

[2] = molecular target: T2, GAL4-hERβ ligand binding domain (LBD) chimeric receptor (Homo sapiens, UniProt Q92731); assay: Transactivation assay for estrogen receptor, ALP reporter, compound alone (ERβ); type: cell-based; conditions: for Activation of ERβ: under tested condition (maximum tolerable 2 μM); for Maximum activation for ERβ: concentration not given; for EC50: compound alone
T2 construct: expressed in transfected cells; host or cells: CHO-K1 (Chinese hamster cells), transient co-transfection with (UAS)4-ALP reporter plasmid
Excerpt: as §1, §2
(§3) The CHO-K1 cell purchased from the Food Industry Research and Development Institute Taiwan with an accession number of CCRC 60006 were cultivated with medium containing 10% FBS and Ham's F12 nutrient mixture (GIBCOBRL). Cells in high confluence were plated onto 96-well culture plate the day before transfection. The plate was then washed to remove the serum during the day of transfection, followed by addition of two plasmid DNA, GAL4-hER[…] and (UAS)4-ALP in the ratio of 1:1 together with Lipofectamine 2000 (GIBCOBRL) transfection agent and culture medium to form DNA-liposome complex for 5 hours. The sample to be assayed was added into the medium of transfected cells and cultivated for two days. The medium was aliquoted for ALP assay using 4-Nitrophenul phosphate disodium salt hexahydrate (pNPP) as the colorimetric substrate for alkaline phosphatase, and reading the absorbance of 405 nm.

CHO-K1 cells = assay: Cytotoxicity to the cells of the transactivation assay; type: cell-based, Chinese hamster
[3] = molecular target: T1, GAL4-hERα ligand binding domain (LBD) chimeric receptor; assay: Transactivation assay, combination treatment with 1 nM E2 (ERα); type: cell-based
Excerpt: as §2, §3

[4] = molecular target: T2, GAL4-hERβ ligand binding domain (LBD) chimeric receptor; assay: Transactivation assay, combination treatment with 1 nM E2 (ERβ); type: cell-based
Excerpt: as §2, §3

T2 sequence (Q92731 264-498 limits assumed, change not shown): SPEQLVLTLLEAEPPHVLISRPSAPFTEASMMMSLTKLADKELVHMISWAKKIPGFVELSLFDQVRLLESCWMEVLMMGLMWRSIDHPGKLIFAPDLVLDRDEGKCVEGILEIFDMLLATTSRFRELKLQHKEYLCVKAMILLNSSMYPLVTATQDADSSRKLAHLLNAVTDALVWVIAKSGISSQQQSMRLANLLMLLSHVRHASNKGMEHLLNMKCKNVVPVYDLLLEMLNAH

SMILES: COC(OC)[C@@]12CC[C@]3(C)[C@@H]([C@H](C)/C=C/C=C(C)C)CC[C@@]3(C)[C@@H]1C=CC1=C2CC[C@H](O)C1(C)C [compound 4, 19-dimethoxycucurbita-5(10),6,22(E),24-tetraen-3β-ol]
- Activation of ERα [1]: no significant activation
- Activation of ERβ [2]: no significant activation
- Cytotoxicity: maximum tolerable concentration for cells (CHO-K1 cells): 2 µM

SMILES: CC(C)=CC(O)C[C@@H](C)[C@H]1CC[C@@]2(C)[C@@H]3C=C[C@@]45OC[C@]3(CC[C@]12C)C4CC[C@H](O)C5(C)C (single isomer, unassigned) [compound 6, 5β,19-epoxycucurbita-6,24-dien-3β,23ξ-diol]
- Maximum activation effect for ERα ([1]; at 22 μM, relative to 1 nM E2): 30 % of E2
- Maximum activation effect for ERβ ([2]; at 22 μM, relative to 1 nM E2): 23 % of E2
- ALP activity, E2-induced ERα activation remaining (E2 = 100%) ([3]; 22 μM compound + 1 nM E2): 10%
- ALP activity, E2-induced ERβ activation remaining (E2 = 100%) ([4]; 22 μM compound + 1 nM E2): 24%

SMILES: CC(C)=C/C=C/[C@@H](C)[C@H]1CC[C@@]2(C)[C@@H]3C=C[C@@]45OC(O)[C@]3(CC[C@]12C)C4CC[C@H](O)C5(C)C (stereo partly drawn) [compound 2, 5β,19-epoxycucurbita-6,22(E),24-trien-3β,19-diol]
- Maximum activation for ERα ([1]; relative to 1 nM E2): 15 % of E2
- Maximum activation for ERβ ([2]; relative to 1 nM E2): 8 % of E2

- Maximum activation of ERβ ([2]; at 35 μM): 26 % that of E2
- EC50 [2]: 11.8 µM
- Maximum activation of ERβ with E2 ([4]; lutein at 18 (unit not given) + 1 nM E2): 166 % that of E2
SMILES: CC1=C[C@H](O)CC(C)(C)[C@H]1/C=C/C(C)=C/C=C/C(C)=C/C=C/C=C(C)/C=C/C=C(C)/C=C/C1=C(C)C[C@@H](O)CC1(C)C [lutein, Lutein]

SMILES: CC(C)=C/C=C/[C@@H](C)[C@H]1CC[C@@]2(C)[C@@H]3C=C[C@@]45OC(=O)[C@]3(CC[C@]12C)C4CC[C@H](O)C5(C)C (stereo partly drawn) [compound 1, cucurbita-6,22(E),24-trien-3β-ol-19,5β-olide]
- Maximum activation for ERα ([1]; relative to 1 nM E2): 12 % of E2
- Maximum activation for ERβ ([2]; relative to 1 nM E2): 10 % of E2

SMILES: CC(C)=C/C=C/[C@@H](C)[C@H]1CC[C@@]2(C)c3ccc4c(c3CC[C@]12C)CC[C@H](O)C4(C)C [compound 5, 19-nor-cucurbita-5(10),6,8,22(E),24-pentaen-3β-ol]
- Maximum activation for ERα ([1]; relative to 1 nM E2): 15 % of E2
- Maximum activation for ERβ ([2]; relative to 1 nM E2): 9 % of E2
- E2 induced activation of ERβ remaining ([4]; 1 μM compound + 1 nM E2, p<0.05): 83 % of E2

- Maximum activation of ERα ([1]; at 102 (unit not given)): 24 % of E2
- EC50 ([1]; compound alone): 14.2 µM
- Maximum activation of ERβ ([2]; at 51 μM): 20 % of E2
- EC50 [2]: 16.7 µM
- Maximum activation of ERα with E2 ([3]; 102 μM + 1 nM E2): 146 % of E2
- Maximum activation of ERβ with E2 ([4]; 51 μM + 1 nM E2): 145 % of E2
SMILES: CC1(C)C[C@H](O)C[C@@]2(C)OC(=O)C=C12 [loliolide, Loliolide]

SMILES: CC(C)=C/C=C/[C@@H](C)[C@H]1CC[C@@]2(C)[C@@H]3C=CC4=C(CC[C@H](O)C4(C)C)[C@]3(C=O)CC[C@]12C [compound 3, 3β-hydroxycucurbita-5(10),6,22(E),24-tetraen-19-al]
- Activation of ERα [1]: no significant activation
- Activation of ERβ [2]: no significant activation
- ALP activity, E2-induced ERα activation remaining (E2 = 100%) ([3]; 2 μM compound + 1 nM E2): 48%
- ALP activity, E2-induced ERβ activation remaining (E2 = 100%) ([4]; 2 μM compound + 1 nM E2): 73%
- Cytotoxicity: maximum tolerable concentration for cells (CHO-K1 cells): 2 µM
